A short description of experiment [1]: inhibition of K1F phage lysis, E. coli UTI89, bacterial capsule biogenesis inhibitors, alamar blue (AID 488966). It is filed as functional.
Experiment [2] can be described thus: inhibitors of firefly luciferase expression or activity, dose response, H4 neuroglioma cells, luminescence (AID 1990). The experiment is classed as functional, cell-based.
The subject of experiment [3] is BJ. Kind of experiment: cytotoxicity toward BJ-TERT fibroblasts, dose response, cell-based, RAS-independent, luminescence (AID 1933). It is filed as functional. Particulars: Homo sapiens.
Experiment [4] is described as follows: Luminescence Cell-Based Dose Response HTS to Identify Inhibitors of 5'UTR Stem-Loop Driven Prion Protein mRNA Translation in H4 Neuroglioblastoma Cells. [Related pubchem assays: 1827 (Project Summary), 1813 (Primary HTS)]. It is filed as functional.
Experiment [5] is described as follows: inhibitors of SNCA 5'UTR-driven reporter translation, confirmation, H4 neuroglioma cells, luminescence (AID 1988). The experiment is classed as functional, cell-based.
Experiment [6] relates to BJ. Nature of the experiment: cells. Particulars: Homo sapiens. The experiment is classed as functional, cell-based.
The target of experiment [7] is Luciferin 4-monooxygenase (Photinus pyralis, UniProt P08659). Kind of experiment: firefly luciferase enzyme inhibitors, dose response, biochemical, luminescence (AID 1891).
Chain of Luciferin 4-monooxygenase (P08659 whole entry): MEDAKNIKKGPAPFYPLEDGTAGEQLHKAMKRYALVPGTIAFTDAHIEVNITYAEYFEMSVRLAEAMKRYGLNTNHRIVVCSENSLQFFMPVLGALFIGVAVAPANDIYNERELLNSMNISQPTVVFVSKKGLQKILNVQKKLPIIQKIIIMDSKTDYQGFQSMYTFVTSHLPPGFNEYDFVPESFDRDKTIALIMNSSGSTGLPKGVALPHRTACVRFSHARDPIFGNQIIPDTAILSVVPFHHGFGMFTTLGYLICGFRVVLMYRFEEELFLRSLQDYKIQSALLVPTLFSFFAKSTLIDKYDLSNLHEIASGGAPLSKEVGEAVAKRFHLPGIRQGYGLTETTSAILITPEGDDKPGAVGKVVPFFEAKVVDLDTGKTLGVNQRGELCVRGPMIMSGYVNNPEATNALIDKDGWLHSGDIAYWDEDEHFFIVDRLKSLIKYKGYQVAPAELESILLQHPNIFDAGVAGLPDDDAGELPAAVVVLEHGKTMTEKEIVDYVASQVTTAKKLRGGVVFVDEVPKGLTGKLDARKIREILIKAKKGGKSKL
The nature of experiment [8]: Luminescence Cell-Based Dose Confirmation HTS to Identify Inhibitors of Platelet Dense Granule Release. [Related pubchem assays: 1663 (Primary HTS), 1678 (Summary of Project)]. It is filed as functional.
In experiment [9] the test system is BJ. Kind of experiment: cytotoxicity toward BJ-TERT-LT-ST fibroblasts, dose response, cell-based, RAS-independent, luminescence (AID 1935).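 Note: BJ fibroblasts immortalized with TERT plus LT and ST oncogenes.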 The experiment is classed as functional. The conditions noted are these: Homo sapiens.
Experiment [10] is described as follows: cytotoxicity toward DRD oncogenic fibroblasts, dose response, cell-based, non-viral oncogenic, luminescence (AID 1934). The experiment is classed as functional. The conditions noted are these: Homo sapiens.
Experiment [11] deals with Trypsin (Sus scrofa, UniProt P00761). Kind of experiment: porcine trypsin inhibitors, dose response, selectivity assay for Rce1 protease inhibitor project, biochemical, quenched peptide fluorescence, cherry-pick (AID 488789).
Chain of Trypsin (P00761 whole entry): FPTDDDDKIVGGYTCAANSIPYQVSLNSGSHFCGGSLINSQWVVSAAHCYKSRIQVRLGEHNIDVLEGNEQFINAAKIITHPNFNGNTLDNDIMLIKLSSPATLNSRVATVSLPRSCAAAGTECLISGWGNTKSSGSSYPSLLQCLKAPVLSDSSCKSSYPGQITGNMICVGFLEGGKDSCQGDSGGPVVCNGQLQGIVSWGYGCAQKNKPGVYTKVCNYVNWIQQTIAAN
A short description of experiment [12]: inhibition of ADP-Glo detection reagents, dose response, artefact control for CDK5 inhibitor project, biochemical, luminescence, cherry-picked samples, set 2 (AID 504546). The experiment is classed as functional. (ADP-Glo turns the ADP formed in a reaction into a luminescent signal.)
For experiment [13], the target named is Cyclin-dependent kinase 5/CDK5 activator 1 (Homo sapiens, UniProt Q00535). Kind of experiment: CDK5/p35 kinase inhibitors, dose response, biochemical, cherry-picked samples, set 2 (AID 504545).
Chain of Cyclin-dependent kinase 5/CDK5 activator 1 (Q00535 whole entry): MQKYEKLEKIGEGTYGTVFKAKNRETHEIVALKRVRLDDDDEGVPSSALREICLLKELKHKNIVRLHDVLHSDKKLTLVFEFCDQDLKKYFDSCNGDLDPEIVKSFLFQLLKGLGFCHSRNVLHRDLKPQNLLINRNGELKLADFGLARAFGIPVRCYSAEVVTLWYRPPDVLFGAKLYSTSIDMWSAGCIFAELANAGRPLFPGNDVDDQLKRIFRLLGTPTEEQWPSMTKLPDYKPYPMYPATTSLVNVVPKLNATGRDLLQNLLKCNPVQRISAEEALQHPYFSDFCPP
Chain of Cyclin-dependent kinase 5/CDK5 activator 1 (Q15078 whole entry, further chain): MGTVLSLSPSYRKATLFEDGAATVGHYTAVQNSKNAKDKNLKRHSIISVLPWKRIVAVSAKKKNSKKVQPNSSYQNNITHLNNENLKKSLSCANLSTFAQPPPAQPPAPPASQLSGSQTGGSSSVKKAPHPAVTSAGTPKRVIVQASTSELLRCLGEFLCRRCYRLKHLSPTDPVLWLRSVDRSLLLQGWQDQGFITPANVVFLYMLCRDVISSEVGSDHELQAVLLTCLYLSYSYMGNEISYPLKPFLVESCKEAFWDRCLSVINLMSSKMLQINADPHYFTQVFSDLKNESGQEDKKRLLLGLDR
Experiment [14] concerns the target T1, CAAX prenyl protease 2 (Saccharomyces cerevisiae S288c, UniProt Q03530).
T1 sequence (Q03530 whole entry): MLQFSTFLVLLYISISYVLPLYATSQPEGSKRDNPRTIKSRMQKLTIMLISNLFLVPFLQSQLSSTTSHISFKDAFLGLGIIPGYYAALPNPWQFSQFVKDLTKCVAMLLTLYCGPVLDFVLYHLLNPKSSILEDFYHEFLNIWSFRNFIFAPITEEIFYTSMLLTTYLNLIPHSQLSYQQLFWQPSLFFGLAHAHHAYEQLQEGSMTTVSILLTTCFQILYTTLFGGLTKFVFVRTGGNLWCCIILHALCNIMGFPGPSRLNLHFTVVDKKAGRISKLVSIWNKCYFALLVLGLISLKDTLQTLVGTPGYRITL
It is filed as biochemical.

Experiment [15] addresses CAAX prenyl protease 1 (Saccharomyces cerevisiae S288c, UniProt P47154). Nature of the experiment: Ste24 protease inhibitors, dose response, biochemical, S. cerevisiae, plate reader, cherry-pick (AID 488815).
The target of experiment [16] is CAAX prenyl protease 2 (Homo sapiens, UniProt Q9Y256). Nature of the experiment: human Rce1 protease inhibitors, dose response, biochemical, yeast membranes, quenched-peptide fluorescence, cherry-pick (AID 588849).
Chain of CAAX prenyl protease 2 (Homo sapiens, UniProt Q9Y256) (Q9Y256 whole entry, the tested form may be a part): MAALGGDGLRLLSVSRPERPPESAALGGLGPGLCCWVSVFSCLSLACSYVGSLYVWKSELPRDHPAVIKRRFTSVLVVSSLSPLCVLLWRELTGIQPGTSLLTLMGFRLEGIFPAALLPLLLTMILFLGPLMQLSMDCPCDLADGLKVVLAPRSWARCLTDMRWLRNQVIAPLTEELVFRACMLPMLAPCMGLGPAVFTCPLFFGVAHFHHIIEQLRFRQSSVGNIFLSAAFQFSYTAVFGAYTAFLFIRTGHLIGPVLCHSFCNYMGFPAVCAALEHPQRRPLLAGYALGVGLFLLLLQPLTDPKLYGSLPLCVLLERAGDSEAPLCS
The target in experiment [17] is T2, RNA-binding protein pos-1 (Caenorhabditis elegans, UniProt G5EF15).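 Note: purified POS-1 fused to maltose binding protein made in E. coli; potency of compounds blocking POS-1 binding to fluorescent RNA.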
T2 sequence (G5EF15 whole entry): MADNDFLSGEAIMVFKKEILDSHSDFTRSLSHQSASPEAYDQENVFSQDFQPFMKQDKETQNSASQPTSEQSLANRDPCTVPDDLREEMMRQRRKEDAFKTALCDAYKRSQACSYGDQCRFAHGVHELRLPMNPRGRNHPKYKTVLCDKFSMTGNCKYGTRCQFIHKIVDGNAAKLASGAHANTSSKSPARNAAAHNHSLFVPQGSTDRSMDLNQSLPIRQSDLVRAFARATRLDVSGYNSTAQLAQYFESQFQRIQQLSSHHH
Kind of experiment: inhibitors of POS-1/mex-3 RNA binding, dose response, biochemical, fluorescence polarization (AID 1964). (In general: In fluorescence polarisation assays a small probe gives low polarisation when free and higher when bound to something large.)

The target in experiment [18] is T3, Zinc finger protein mex-5 (Caenorhabditis elegans, UniProt Q9XUB2).
T3 sequence (Q9XUB2 whole entry): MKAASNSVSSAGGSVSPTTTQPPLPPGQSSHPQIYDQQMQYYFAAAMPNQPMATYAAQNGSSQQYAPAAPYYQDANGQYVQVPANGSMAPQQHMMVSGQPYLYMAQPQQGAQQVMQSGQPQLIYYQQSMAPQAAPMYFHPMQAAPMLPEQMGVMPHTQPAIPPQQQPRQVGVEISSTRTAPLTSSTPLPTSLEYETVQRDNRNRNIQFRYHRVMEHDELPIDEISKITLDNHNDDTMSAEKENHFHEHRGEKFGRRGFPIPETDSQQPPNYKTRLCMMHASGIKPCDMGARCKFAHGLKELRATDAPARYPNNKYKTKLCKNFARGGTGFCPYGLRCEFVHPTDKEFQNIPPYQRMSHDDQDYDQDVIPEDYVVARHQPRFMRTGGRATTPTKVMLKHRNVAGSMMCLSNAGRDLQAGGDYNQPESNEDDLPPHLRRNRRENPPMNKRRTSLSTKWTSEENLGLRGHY
Kind of experiment: MEX-5/TCR-2 RNA interaction inhibitors, dose response, biochemical, C. elegans, fluorescence polarization (AID 1960).

For experiment [19], the target named is Neurotensin receptor type 1 (Homo sapiens, UniProt P30989). It is filed as functional.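 Note: Image-based confirmatory dose-response assay measuring agonist activity at NTR1; NTR1-expressing U2OS osteosarcoma cells imaged for beta-arrestin GFP spot formation; agonist potency where compounds increase beta-arrestin recruitment.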
Chain of Neurotensin receptor type 1 (P30989 whole entry): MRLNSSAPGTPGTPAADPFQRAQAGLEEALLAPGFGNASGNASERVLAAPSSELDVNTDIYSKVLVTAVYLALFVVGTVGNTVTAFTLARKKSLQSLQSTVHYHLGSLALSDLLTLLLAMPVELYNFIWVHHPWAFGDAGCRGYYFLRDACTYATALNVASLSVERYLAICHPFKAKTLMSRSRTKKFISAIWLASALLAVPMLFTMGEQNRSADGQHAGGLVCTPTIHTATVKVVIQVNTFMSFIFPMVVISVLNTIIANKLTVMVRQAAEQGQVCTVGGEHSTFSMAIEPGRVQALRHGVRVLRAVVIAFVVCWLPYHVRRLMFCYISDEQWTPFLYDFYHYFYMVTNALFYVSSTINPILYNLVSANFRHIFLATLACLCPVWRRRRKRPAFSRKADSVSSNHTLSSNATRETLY
Experiment [20] is described as follows: Luminescence Cell-Based Dose Response HTS to Identify Activators of Luciferase Translation or Activity in H4-C Neuroglioblastoma Cells. [Related pubchem assays: 1829 (Project Summary), 1814 (Primary HTS)]. The experiment is classed as functional.
Experiment [21] in a line: Luminescence Cell-Based Dose Retest to Confirm Activators of 5'UTR Stem-Loop Driven Alpha-Synuclein mRNA Translation in H4 Neuroglioblastoma Cells. [Related pubchem assays (depositor defined):AID1813, AID1829]. It is filed as functional.
A short description of experiment [22]: Luminescence Cell-Based Dose Response HTS to Identify Activators of 5'UTR Stem-Loop Driven Prion Protein mRNA Translation in H4-C Neuroglioblastoma Cells. [Related pubchem assays: 1829 (Project Summary), 1814 (Primary HTS)]. The experiment is classed as functional.
The nature of experiment [23]: Luminescence Cell-Based Dose Confirmation HTS to Identify Activators of 5'UTR Stem-Loop Driven Alpha-Synuclein mRNA Translation in H4 Neuroglioblastoma Cells. [Related pubchem assays: 1829 (Project Summary), 1814 (Primary HTS)]. It is filed as functional.
The nature of experiment [24]: Luminescence Cell-Based Dose Response HTS to Identify Activators of Luciferase Translation or Activity in H4 […] Cells. [Related pubchem assays: 1829 (Project Summary), 1814 (Primary HTS)]. The experiment is classed as functional.
Experiment [25] relates to H4. Kind of experiment: Luminescence Cell-Based Dose Response HTS to Identify Activators of 5'UTR Stem-Loop Driven Prion Protein mRNA Translation in H4 Neuroglioblastoma Cells. [Related pubchem assays: 1829 (Project Summary), 1814 (Primary HTS)]. It is filed as functional. The conditions noted are these: Homo sapiens.
Experiment [26] concerns the target T4, Heat shock factor protein 1 (Mus musculus, UniProt P38532).
T4 sequence (P38532 whole entry): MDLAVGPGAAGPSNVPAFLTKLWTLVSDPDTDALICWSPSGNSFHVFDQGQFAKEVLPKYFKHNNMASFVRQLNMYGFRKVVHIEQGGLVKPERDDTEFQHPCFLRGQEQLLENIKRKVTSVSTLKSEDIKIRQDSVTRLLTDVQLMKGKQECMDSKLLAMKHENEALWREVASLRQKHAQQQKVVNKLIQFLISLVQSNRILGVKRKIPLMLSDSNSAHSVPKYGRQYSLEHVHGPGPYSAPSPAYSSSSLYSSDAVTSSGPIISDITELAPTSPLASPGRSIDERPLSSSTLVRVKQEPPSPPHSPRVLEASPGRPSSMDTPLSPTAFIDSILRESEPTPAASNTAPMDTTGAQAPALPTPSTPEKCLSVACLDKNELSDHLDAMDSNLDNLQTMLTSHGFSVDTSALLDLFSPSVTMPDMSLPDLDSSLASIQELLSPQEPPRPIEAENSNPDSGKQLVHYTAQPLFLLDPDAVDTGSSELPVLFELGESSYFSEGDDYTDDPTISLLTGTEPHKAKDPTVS
Nature of the experiment: HSF1 potentiators in luciferase reporter cells, confirmation, cell-based, NIH3T3, luminescence, dose retest (AID 435004).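 Note: stress induced by proteasome inhibitor MG132 added 30 min after compound; luciferase reporter driven by HSF1 response element in NIH3T3 cells; actives raise luminescence as potentiators of the MG132 stress response.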 It is filed as functional. Background: A reporter such as luciferase makes a cellular process visible.

Experiment [27] has as its target Scavenger receptor class B member 1 (Mus musculus, UniProt Q61009). Nature of the experiment: inhibitors of SR-BI mediated HDL lipid uptake, dose response, ldlA[mSR-BI] cells, fluorescence, cherry pick (AID 493194).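 Note: cellular uptake of fluorescent DiI-labeled HDL measured as cell fluorescence.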 It is filed as functional, cell-based.
For experiment [28], the target named is Metabotropic glutamate receptor 4 (Homo sapiens, UniProt Q14833). Nature of the experiment: Modulation of the Metabotropic Glutamate Receptor mGluR4: Potency at human mGluR4. Modulation of intracellular Ca2+ using Fluo-4, AM, in CHO expressing recombinant receptor [Related pubchem assays (depositor defined):AID2437, AID2807]. It is filed as functional, cell-based.
Chain of Metabotropic glutamate receptor 4 (Homo sapiens, UniProt Q14833) (Q14833 whole entry): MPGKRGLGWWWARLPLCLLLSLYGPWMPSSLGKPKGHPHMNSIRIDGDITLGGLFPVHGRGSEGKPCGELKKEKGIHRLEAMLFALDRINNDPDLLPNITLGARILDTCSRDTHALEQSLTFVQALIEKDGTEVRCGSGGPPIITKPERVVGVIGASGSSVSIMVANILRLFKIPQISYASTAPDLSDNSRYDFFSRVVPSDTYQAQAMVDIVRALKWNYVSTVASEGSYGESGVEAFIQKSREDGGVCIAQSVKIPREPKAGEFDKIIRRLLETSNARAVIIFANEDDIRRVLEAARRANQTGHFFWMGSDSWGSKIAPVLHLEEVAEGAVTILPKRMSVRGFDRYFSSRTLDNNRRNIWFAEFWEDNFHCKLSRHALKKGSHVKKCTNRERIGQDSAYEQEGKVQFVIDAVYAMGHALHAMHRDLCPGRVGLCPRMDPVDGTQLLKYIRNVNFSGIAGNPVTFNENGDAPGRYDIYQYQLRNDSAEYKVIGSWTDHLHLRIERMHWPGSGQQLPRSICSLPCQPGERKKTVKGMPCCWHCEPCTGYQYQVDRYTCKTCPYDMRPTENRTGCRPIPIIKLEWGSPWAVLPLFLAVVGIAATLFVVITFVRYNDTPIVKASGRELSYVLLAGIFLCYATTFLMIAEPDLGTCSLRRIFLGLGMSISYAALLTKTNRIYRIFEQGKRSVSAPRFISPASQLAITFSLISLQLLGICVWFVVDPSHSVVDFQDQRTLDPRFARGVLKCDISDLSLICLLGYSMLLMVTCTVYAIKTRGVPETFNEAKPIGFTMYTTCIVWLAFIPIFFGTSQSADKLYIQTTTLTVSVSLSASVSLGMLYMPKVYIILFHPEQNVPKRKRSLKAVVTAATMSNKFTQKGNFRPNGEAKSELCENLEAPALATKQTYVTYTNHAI

For experiment [29], the target named is Metabotropic glutamate receptor 4 (Rattus norvegicus, UniProt P31423). Nature of the experiment: Modulation of the Metabotropic Glutamate Receptor mGluR4: Rat PAM Potency. [Related pubchem assays (depositor defined):AID2437, AID2807]. The experiment is classed as functional.
Chain of Metabotropic glutamate receptor 4 (Rattus norvegicus, UniProt P31423) (P31423 whole entry): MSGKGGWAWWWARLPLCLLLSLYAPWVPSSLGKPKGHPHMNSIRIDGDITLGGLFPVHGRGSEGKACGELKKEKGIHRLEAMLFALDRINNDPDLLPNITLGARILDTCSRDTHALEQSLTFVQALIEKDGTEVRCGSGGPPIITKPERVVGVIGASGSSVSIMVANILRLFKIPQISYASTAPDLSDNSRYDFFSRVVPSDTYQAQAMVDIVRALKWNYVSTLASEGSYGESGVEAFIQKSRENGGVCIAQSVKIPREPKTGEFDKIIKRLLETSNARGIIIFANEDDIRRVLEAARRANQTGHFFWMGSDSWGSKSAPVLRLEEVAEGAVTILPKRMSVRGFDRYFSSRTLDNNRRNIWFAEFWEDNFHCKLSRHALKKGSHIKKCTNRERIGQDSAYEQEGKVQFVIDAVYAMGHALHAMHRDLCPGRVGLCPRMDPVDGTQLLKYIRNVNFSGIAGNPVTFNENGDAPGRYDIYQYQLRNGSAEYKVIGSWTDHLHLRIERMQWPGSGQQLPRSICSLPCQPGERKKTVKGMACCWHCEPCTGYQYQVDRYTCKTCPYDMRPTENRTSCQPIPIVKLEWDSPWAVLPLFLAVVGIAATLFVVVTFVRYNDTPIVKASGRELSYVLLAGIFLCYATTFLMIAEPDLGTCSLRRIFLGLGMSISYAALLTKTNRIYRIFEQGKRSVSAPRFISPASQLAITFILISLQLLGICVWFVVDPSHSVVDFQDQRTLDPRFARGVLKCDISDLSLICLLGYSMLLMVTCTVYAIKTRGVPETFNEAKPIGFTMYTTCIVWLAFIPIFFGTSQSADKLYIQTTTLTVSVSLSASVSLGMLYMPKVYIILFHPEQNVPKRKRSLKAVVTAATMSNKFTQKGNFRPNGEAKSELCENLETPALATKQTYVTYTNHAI

The structures appear in SMILES notation. Active and inactive are the calls of the source. Cut-off read from the data, not from the text of the source, for most assays here: actives have a measured EC50 and inactives only a lower limit.

Chain of CAAX prenyl protease 1 (P47154 whole entry): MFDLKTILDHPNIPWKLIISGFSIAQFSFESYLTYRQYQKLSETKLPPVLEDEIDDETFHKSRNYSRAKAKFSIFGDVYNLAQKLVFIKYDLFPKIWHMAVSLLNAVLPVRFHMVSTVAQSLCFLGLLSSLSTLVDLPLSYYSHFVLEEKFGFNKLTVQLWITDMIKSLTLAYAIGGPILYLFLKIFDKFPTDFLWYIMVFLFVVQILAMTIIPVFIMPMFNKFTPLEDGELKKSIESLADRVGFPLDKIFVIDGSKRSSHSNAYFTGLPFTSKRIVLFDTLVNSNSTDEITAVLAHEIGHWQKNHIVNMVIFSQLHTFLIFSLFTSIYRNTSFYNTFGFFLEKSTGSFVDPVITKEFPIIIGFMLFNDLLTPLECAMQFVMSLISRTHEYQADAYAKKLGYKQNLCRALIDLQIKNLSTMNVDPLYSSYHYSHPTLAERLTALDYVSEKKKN
Chain of Scavenger receptor class B member 1 (Q61009 whole entry): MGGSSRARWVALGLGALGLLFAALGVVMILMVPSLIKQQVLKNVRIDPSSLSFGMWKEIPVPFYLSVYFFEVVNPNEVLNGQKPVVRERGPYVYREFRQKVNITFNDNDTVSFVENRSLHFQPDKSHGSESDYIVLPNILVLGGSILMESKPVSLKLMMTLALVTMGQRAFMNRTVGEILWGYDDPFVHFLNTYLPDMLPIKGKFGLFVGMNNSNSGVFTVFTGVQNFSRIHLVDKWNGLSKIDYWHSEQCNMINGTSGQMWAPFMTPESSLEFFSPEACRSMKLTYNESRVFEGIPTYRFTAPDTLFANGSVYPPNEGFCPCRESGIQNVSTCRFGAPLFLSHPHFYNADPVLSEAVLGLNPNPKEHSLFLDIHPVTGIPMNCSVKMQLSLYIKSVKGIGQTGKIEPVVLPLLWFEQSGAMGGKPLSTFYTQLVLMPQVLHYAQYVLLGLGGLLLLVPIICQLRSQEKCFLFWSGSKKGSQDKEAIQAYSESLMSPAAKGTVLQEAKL

For orientation: IC50 means the concentration that gives 50% inhibition. With `O=C(Nc1nnc(/C=C/c2ccccc2)s1)c1ccco1`, the IC50 in [1] is > 75 µM (active).
One may read the EC50 as the concentration giving half of the maximal effect. In general, AC50 refers to the concentration giving half of the maximal activity seen. Turning to `Cc1ccc2nc(-c3ccccc3)cn2c1`, the EC50 is 1.32 µM (active) in [2]; 9.54 µM (active) in experiment [3]; 8.72 µM (active) in experiment [4]; 0.717 µM (active) in experiment [5]; 9.05 µM (active) in [6]; 1.58 µM (active) in experiment [7]. Moreover, the concentration for a half-maximal effect (EC50) in [8] is 2.18 µM (active); in experiment [9] it was > 150 µM (inconclusive); in experiment [10], 7.45 µM (active). Besides, the concentration at half-maximal activity (AC50) in experiment [11] is 59.9 µM (active); in experiment [12], 59.3 µM (active); in [13], 18.6 µM (active); in [14] it was > 100 µM (inactive); in experiment [15], 7.44 µM (active); in experiment [16] it was > 100 µM (inactive).
Consider `O=C1NC(=O)C(=Cc2cn(CCOc3ccc4c(c3)OCO4)c3ccccc23)C(=O)N1`, for which the half-maximal effective concentration (EC50) in [17] was 16.7 µM (active); in [18] it was 11.9 µM (active); in [19], 4.12 µM (active).
`Cc1cccc(NCc2nc3ccccc3n2C)c1`: the EC50 in [20] is 1.63 µM (active); in experiment [21] it was 0.752 µM (active); in experiment [22] it was 3.39 µM (active); in [23], 0.296 µM (active); in [24] it was > 120 µM (not active); in [25], 8.1 µM (active). In experiment [26], the EC50 is 201 µM (active).
On to `CCc1sc(N2C(=O)C3C4CCC(C4=C(C)C)C3C2=O)nc1-c1ccccc1` (centres undefined), for which, in experiment [27], the AC50 was 0.635 µM (active).
As to `O=C(Nc1ccc(N2C(=O)[C@@H]3[C@H](C2=O)[C@@H]2CC[C@H]3O2)c(Cl)c1)c1ccccn1`, the EC50 was 1.44 µM (active) in [28] and 2.29 µM (active) in experiment [29].

Source of the values: ChEMBL document CHEMBL1201862, “PubChem BioAssay data set” (2004).
